Read-outs that look alike come from different tables or passages of the source.
What was measured:
[1] = tested on: sensory neuron cells from CD34+-derived induced pluripotent stem cells; experiment: Q-PCR of marker genes in induced sensory neuron cells
Description: Total RNA from different sensory neuron cells was extracted by RNeasy Mini or Micro Kit (QIAGEN), and cDNA was synthesized from 1 mg RNA by SuperScript III First-Strand Synthesis System (Invitrogen). SYBR Premix Ex Taq (TaKaRa) and Thermal Cycler Dice Real Time System (TaKaRa) were used for labeling and reaction of Quantitative PCR, and beta-Actin was used as internal control. All data were analyzed by delta-Ct method. Triplicates were used for each group of experiments, and statistics were performed with ANOVA.

[2] = tested on: sensory neuron cells from CD34+-derived induced pluripotent stem cells; experiment: Morphology / axon formation of induced sensory neuron cells; format: cell-based, human; conditions: for axon formation: low (3 μM), medium (6 μM) and high (10 μM) concentration
Description: After obtaining the above-mentioned various sensory nerve precursor cells, the medium was removed, and cells were washed with DPBS, and then treated with 0.05% trypsin/EDTA at 37° C. for 5 minutes, and then cell digestion was terminated with DMEM. After the cells were washed and centrifuged, the cells were re-seeded in a T25 culture flask at 1-5×10^5 per plate, and the sensory nerve precursor cells were induced to differentiate and expand into mature sensory neurons by using sensory neuron cell medium. The conditions for cell culture were 37° C., 5% CO2.

[3] = Osmotic pressure of the culture system by freezing point osmometer; format: physicochemical
Description: In order to observe the effect of different concentrations of glycine-glutamine monohydrate on osmotic pressure, the effect of different concentrations of glycine-glutamine monohydrate on the osmotic pressure of culture system was detected by using an automatic freezing point osmometer (FM-8P, Shanghai Medical University Instrument Co., Ltd.), and specific operations were performed according to the product manual (FM-8P, Shanghai Medical University Instrument Co., Ltd.).

[4] = tested on: sensory nerve precursor cells from CD34+-derived cells; experiment: Induction of sensory nerve precursor cells with different small molecules (morphology, Q-PCR of precursor markers); format: cell-based, human; conditions: 5 μM in induction medium
Description: When the induced pluripotent stem cells reached 70% coverage, they were digested with 0.05% trypsin/EDTA for 5 min at 37° C., and the cell digestion was terminated by using DMEM. After the cells were washed and centrifuged, they were re-seeded in a T25 culture plate at 2×10^5 per flask, and cultured in a sensory neuron induction medium at 37° C., 5% CO2 (Panasonic, MCO-18AC) for 10 days until the formation of neural plate, which confirmed the formation of sensory nerve precursor cells.
All data were analyzed by delta-Ct method.
(5.2) Taking CD34+-derived cells as an example, different small molecules (5 μM RepSox, 5 μM SB525334 and 5 μM TEW-7197 molecules) were used to replace the LY2157299 in the sensory neuron induction medium N2GS212I-2 in Section (3.1) of Example 3; steps in Section (3.1) of Example 3 were repeated to observe the effects of different small molecules on the induced sensory nerve precursor cells.
(5.3) Taking CD34+-derived cells as an example, steps of Example 4 (4.3) were repeated by using the sensory nerve precursor cells obtained in (5.2), and the effects of different small molecules on the expression of neuronal precursor cell markers during the formation of sensory nerve precursor cells were observed. As shown in the figures, the different inhibitor molecules were not only able to form neuron precursor cells (forming a neural plate structure shown in the figure), but also able to increase the expressions of neuron precursor cell markers.

sodium ion channel 1.7 = molecular target: T1, sodium ion channel 1.7 (Homo sapiens, UniProt Q15858); experiment: MEA spontaneous discharge after PF-05089771; format: cell-based; conditions: for electrophysiological strength of sodium ion channels of induced cells: various concentrations in induction/culture medium, after 1 μM PF-05089771, fibroblast-derived
T1 construct: endogenous in cells; host or cells: sensory neurons induced from human fibroblast-derived iPSCs
T1 sequence (Q15858 whole entry): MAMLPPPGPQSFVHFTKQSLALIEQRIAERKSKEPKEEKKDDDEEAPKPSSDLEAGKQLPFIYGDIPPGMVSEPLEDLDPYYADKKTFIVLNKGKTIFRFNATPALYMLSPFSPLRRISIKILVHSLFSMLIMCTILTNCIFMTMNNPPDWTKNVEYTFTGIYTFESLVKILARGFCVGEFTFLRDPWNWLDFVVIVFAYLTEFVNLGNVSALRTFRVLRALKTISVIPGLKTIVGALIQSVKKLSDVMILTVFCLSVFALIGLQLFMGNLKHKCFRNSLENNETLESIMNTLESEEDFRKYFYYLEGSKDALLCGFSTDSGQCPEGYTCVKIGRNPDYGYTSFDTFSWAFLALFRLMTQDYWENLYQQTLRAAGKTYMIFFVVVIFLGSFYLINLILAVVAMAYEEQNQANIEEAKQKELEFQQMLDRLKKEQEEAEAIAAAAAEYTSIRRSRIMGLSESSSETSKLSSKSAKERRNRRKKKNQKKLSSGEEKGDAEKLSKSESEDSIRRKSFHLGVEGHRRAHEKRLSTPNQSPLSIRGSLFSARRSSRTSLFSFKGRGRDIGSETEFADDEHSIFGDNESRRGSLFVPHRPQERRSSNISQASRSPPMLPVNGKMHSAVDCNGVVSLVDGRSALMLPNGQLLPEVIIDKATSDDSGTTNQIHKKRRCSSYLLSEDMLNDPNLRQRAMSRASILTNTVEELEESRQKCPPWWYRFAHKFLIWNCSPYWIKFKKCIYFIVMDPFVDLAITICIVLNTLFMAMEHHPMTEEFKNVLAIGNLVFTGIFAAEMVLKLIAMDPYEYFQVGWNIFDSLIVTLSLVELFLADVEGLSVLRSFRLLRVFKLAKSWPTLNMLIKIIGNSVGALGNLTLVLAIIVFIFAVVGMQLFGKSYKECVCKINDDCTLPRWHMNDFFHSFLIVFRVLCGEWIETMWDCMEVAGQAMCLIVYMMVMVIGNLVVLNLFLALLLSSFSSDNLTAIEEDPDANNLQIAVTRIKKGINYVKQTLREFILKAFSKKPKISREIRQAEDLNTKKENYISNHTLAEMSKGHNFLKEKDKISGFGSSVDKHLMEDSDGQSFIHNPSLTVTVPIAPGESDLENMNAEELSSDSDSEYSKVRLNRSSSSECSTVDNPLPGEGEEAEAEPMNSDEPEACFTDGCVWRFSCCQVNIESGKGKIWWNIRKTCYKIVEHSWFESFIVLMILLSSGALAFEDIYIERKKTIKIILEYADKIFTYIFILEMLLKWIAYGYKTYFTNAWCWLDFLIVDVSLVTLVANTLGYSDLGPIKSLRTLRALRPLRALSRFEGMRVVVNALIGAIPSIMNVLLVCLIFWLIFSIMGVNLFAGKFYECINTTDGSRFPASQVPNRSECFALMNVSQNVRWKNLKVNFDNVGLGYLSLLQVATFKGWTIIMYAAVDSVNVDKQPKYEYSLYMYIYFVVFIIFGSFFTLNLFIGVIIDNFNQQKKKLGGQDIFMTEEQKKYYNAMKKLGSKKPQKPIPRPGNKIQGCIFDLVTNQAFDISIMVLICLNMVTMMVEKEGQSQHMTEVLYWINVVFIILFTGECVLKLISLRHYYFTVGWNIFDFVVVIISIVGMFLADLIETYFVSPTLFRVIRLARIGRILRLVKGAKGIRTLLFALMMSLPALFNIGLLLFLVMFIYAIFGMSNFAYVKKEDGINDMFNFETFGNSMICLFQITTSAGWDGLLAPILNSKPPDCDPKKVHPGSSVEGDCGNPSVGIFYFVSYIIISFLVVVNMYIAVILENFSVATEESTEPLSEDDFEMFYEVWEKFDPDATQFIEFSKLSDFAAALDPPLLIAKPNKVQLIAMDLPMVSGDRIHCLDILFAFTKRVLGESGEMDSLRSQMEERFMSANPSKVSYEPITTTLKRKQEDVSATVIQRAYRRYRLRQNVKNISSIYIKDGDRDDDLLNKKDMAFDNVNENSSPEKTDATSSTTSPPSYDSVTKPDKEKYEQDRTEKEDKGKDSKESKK

[5] = tested on: induced sensory neurons derived from fibroblasts; experiment: Cyquant cell viability assay; format: cell-based, human; conditions: day 1, 3, 5, 10; different concentrations of NT3
Description: The cell viability was quantitatively detected by Cyquant assay to compare the effects of different combinations of small molecule compounds on maintaining physiological states of cells during long-term culture of induced sensory neurons.
Cell plate coating was performed in a 96-well opaque cell culture plate according to the method in Example 4 (4.4.1). […] The cells were cultured in the sensory neuron cell induction medium of Example 3 with different concentrations of NT3, and the culture conditions were 37° C., 5% carbon dioxide, and the medium was half quantity changed every three days. The medium in the known method was used as a control group. Samples were taken at day 1, day 3, day 5 and day 10, respectively, and the cell viability detection was carried out by using CyQuant Kit (Invitrogen, X12223) according to the instruction manual, and date were read by SpectraMax i3 Multi-Mode Microplate Reader (VWR, ID3-STD).

Molecule: C[C@H](NC(=O)Cc1cc(F)cc(F)c1)C(=O)N[C@H](C(=O)OC(C)(C)C)c1ccccc1 [DAPT]
- induced neuron cell markers and peripheral sensory neuron cell markers ([1]; DAPT lower than 3 μM): much lower than those in the serum control group
- expression of neuron marker Tuj ([1]; DAPT more than 10 μM): increased
- expression of sodium ion channel 1.8 (SCN10A) ([1]; DAPT more than 10 μM): decreased
- axon formation [2]: able to form axons

Molecule: O=S(=O)(O)CCN1CCN(CCO)CC1 [HEPES buffer, HEPES]
- osmotic pressure with increase of concentration ([3]; HEPES buffer in medium): increased linearly
- osmotic pressure of the culture system ([3]; concentration more than 15 mM): > 320 mOsm/kg
- cell morphology ([2]; HEPES buffer 5 mM, 10 mM, 15 mM): morphologically normal
- cell tolerance ([2]; high concentration (15 mM)): cell intolerance began to appear

Molecule: c1ccc2c(-c3cnn4cc(-c5ccc(N6CCNCC6)cc5)cnc34)ccnc2c1 [LDN193189]
- expression of Caspase3 relative to serum control group ([1]; LDN193189 180 nM or more): more than 1.5 times
- expression of sodium ion channel 1.8 (SCN10A) ([1]; LDN193189 below 12 nM): lower than that in serum control
- induction of cell types with neural axons ([2]; 12 nM, 50 nM and 180 nM): cell types with neural axons can be induced

Molecule: Cc1cccc(-c2nn3c(c2-c2ccnc4ccc(C(N)=O)cc24)CCC3)n1 [LY2157299]
- expressions of SCN9A and SCN11A compared with the serum induction method ([1]; 7.5 μM and 25 μM): significantly increased
- expression of various sodium ion channel proteins versus concentration ([1]; Q-PCR, different LY2157299 concentrations in induction medium): linear increase in concentration versus protein expression
- ion channel protein expressions ([1]; concentrations of below 50 nM): significantly lower than normal levels
- formation of neuron precursor cells (neural plate structure) [4]: neuron precursor cells formed
- antagonism against PF-05089771 of the induced neurons (sodium ion channel 1.7; neurons induced by using LY2157299, 1 μM PF-05089771): more antagonism against PF-05089771
- electrophysiological strength of sodium ion channels of induced cells (sodium ion channel 1.7): significantly improved

Molecule: Cc1cccc(-c2[nH]ncc2-c2ccc3ncccc3n2)n1 [RepSox]
- formation of neuron precursor cells (neural plate structure) [4]: neuron precursor cells formed

Molecule: Cc1cccc(-c2[nH]c(C(C)(C)C)nc2-c2ccc3nccnc3c2)n1 [SB525334]
- formation of neuron precursor cells (neural plate structure) [4]: neuron precursor cells formed

Molecule: Cc1c[nH]c(/C=C2\C(=O)Nc3ccccc32)c1CCC(=O)O [SU5402]
- cell death marker CASP3 ([1]; SU5402 higher than 15 μM): significantly increased
- expression of ion channel protein compared with serum induction method ([1]; SU5402 lower than 3 μM): lower than the control level
- electrophysiological strength of sodium ion channels of induced cells (sodium ion channel 1.7): significantly improved
- axon formation [2]: could form axons

Molecule: Cc1cccc(-c2[nH]c(CNc3ccccc3F)nc2-c2ccc3ncnn3c2)n1 [TEW-7197]
- formation of neuron precursor cells (neural plate structure) [4]: neuron precursor cells formed

Molecule: CHIR98014
- expression of SCN11A (Nav1.9) compared with the serum induction method [1]: significantly increased
- expression of ion channel protein [1]: lower than normal level
- expression of neuron marker Tuj [1]: lower than that at other concentrations

B1: NT3: human-NT3 (Novoprotein, Cat. No. C079), added to sensory neuron cell medium (protein, UniProt P20783 139-257, looked up)
Neurotrophin-3: YAEHKSHRGEYSVCDSESLWVTDKSSAIDIRGHQVTVLGEIKTGNSPVKQYFYETRCKEARPVKNGCRGIDDKHWNSQCKTSQTYVRALTSENNKLVGWRWIRIDTSCVCALSRKIGRT
modifications: Neurotrophin-3
notes: human-NT3 (Novoprotein, Cat. No. C079), added to sensory neuron cell medium
- in vitro viability of induced neurons in long-term culture vs serum induction method [5]: effectively increase the in vitro viability

Source: patent US20230235282A1, “SERUM-FREE INDUCTION METHOD FOR SENSORY NEURON CELL” (IREGENE THERAPEUTICS LTD, priority 2020, published 2023)
